This note sets out measurements from patent US20250197376A1, “PYRAZINE AMIDE DERIVATIVES” (Novartis AG, priority 2022, published 2025).

Each structure is given as a SMILES string.

The subject of this assay is 3D7 P. falciparum strain. Put plainly: P. falciparum 3D7 parasite proliferation assay (SYBR Green). Type of assay: cell-based. The following applies: Plasmodium falciparum, Erythrocyte; 3D7 P. falciparum infected human erythrocytes, 72 hours, SYBR Green fluorescence; read-out: Pf3D7 Activity. As to the method:
The following assay illustrates the invention without in any way limiting the scope of the invention. This parasite proliferation assay measures the increase in parasite DNA content using a DNA intercalating dye, SYBR Green®. 3D7 P. falciparum strain is grown in complete culturing media until parasitemia reaches 3% to 8% with O+ human erythrocytes. 20 μl of screening media is dispensed into 384 well assay plates. 50 nl of compounds of the invention (in DMSO), including antimalarial controls (mefloquine, pyrimethamine and artemisinin), are then transferred into the assay plates, as well as DMSO alone to serve as a negative control for inhibition. Then 30 μl of a suspension of a 3D7 P. falciparum infected erythrocytes in screening media is dispensed into the assay plates such that the final hematocrit is 2.5% with a final parasitemia of 0.3%. The plates are placed in a 37° C. incubator for 72 hours in a low oxygen environment containing 93% N2, 4% CO2, and 3% O2 gas mixture. 10 μl of lysis buffer (saponin, triton-X, EDTA) containing a 10× solution of SYBR Green […] in RPMI media is dispensed into the plates. The plates are lidded and kept at room temperature overnight for the lysis of the infected red blood cells. The fluorescence intensity is measured (excitation […], emission 530 nm) using the Envision™ system (Perkin Elmer). The percentage inhibition of 50%, EC50, is calculated for each compound.
`CC(C)(N)CNC(=O)c1cncc(-c2cc3cc(Cl)nc(Cl)c3[nH]2)n1` [Example 38, N-(2-amino-2-methylpropyl)-6-(5,7-dichloro-1H-pyrrolo[2,3-c]pyridin-2-yl)pyrazine-2-carboxamide]: the EC50 was more than 100 nM.
As to `Cc1c(-c2cncc(C(=O)NCC3(N)CCOCC3)n2)[nH]c2ccc(OC(F)(F)F)cc12` [Example 61, N-((4-aminotetrahydro-2H-pyran-4-yl)methyl)-6-(3-methyl-5-(trifluoromethoxy)-1H-indol-2-yl)pyrazine-2-carboxamide], the EC50 lay in the range of 10 to 100 nM.
In the case of `CC(C)(N)CNC(=O)c1cncc(-c2cc3cc(F)c(F)cc3[nH]2)n1` [Example 20, N-(2-amino-2-methylpropyl)-6-(5,6-difluoro-1H-indol-2-yl)pyrazine-2-carboxamide], the EC50 was in the range of 10 to 100 nM.
As for `Cc1c(-c2cncc(C(=O)NCC3(N)CCC3)n2)[nH]c2ccccc12` [Example 84, N-((1-aminocyclobutyl)methyl)-6-(3-methyl-1H-indol-2-yl)pyrazine-2-carboxamide], the EC50 was in the range of 10 to 100 nM.
On to `CC(C)c1c(-c2cncc(C(=O)NCC(C)(C)N)n2)[nH]c2ccc(OC(F)(F)F)cc12` [Example 16, N-(2-amino-2-methylpropyl)-6-(3-isopropyl-5-(trifluoromethoxy)-1H-indol-2-yl)pyrazine-2-carboxamide], for which the EC50 is 10 to 100 nM.
Next, `Cc1c(-c2cncc(C(=O)NCC(C)(C)N)n2)[nH]c2cc(F)c(Cl)cc12` [Example 10, N-(2-amino-2-methylpropyl)-6-(5-chloro-6-fluoro-3-methyl-1H-indol-2-yl)pyrazine-2-carboxamide]: less than 10 nM; `Cc1c(-c2cncc(C(=O)NCC(C)(C)N)n2)[nH]c2ccccc12` [Example 83, N-(2-amino-2-methylpropyl)-6-(3-methyl-1H-indol-2-yl)pyrazine-2-carboxamide]: 10 to 100 nM.
Consider `COC(=O)c1ccc2cc(-c3cncc(C(=O)NCC(C)(C)N)n3)[nH]c2c1` [Example 29, Methyl 2-(6-((2-amino-2-methylpropyl)carbamoyl)pyrazin-2-yl)-1H-indole-6-carboxylate], for which the EC50 is 10 to 100 nM.
For `Cc1c(-c2cncc(C(=O)NCC(C)(C)N)n2)[nH]c2c(F)cc(Cl)cc12` [Example 6, N-(2-amino-2-methylpropyl)-6-(5-chloro-7-fluoro-3-methyl-1H-indol-2-yl)pyrazine-2-carboxamide], the EC50 was less than 10 nM.
For `Cc1c(-c2cncc(C(=O)NCC(C)(C)N)n2)[nH]c2ccc(C(=O)NCC(C)(C)N)cc12` [Example 107, N-(2-amino-2-methylpropyl)-2-(6-((2-amino-2-methylpropyl)carbamoyl)pyrazin-2-yl)-3-methyl-1H-indole-5-carboxamide], the EC50 is more than 100 nM.
The value for `Cc1c(-c2cncc(C(=O)NCC3(N)CCOCC3)n2)[nH]c2cc(Cl)c(F)cc12` [Example 80, N-((4-aminotetrahydro-2H-pyran-4-yl)methyl)-6-(6-chloro-5-fluoro-3-methyl-1H-indol-2-yl)pyrazine-2-carboxamide] was 10 to 100 nM; that for `Cc1c(-c2cncc(C(=O)NCC(C)(C)N)n2)[nH]c2c1CCC(C)(C)C2` [Example 76, N-(2-Amino-2-methylpropyl)-6-(3,6,6-trimethyl-4,5,6,7-tetrahydro-1H-indol-2-yl)pyrazine-2-carboxamide] was 10 to 100 nM.
The value for `Cc1c(-c2cncc(C(=O)NCC3(N)CCOCC3)n2)[nH]c2ccccc12` [Example 89, N-((4-aminotetrahydro-2H-pyran-4-yl)methyl)-6-(3-methyl-1H-indol-2-yl)pyrazine-2-carboxamide] was 10 to 100 nM; that for `Cc1c(-c2cncc(C(=O)NCC(C)(C)N)n2)[nH]c2cc(S(F)(F)(F)(F)F)ccc12` [Example 9, N-(2-amino-2-methylpropyl)-6-(3-methyl-6-(pentafluoro-[…]^6-sulfaneyl)-1H-indol-2-yl)pyrazine-2-carboxamide] was less than 10 nM.
